In patent US4758589A, “Tetraphosphine-coordinated gold(I) complexes” (SmithKline Beckman Corporation, priority 1987, dated 1988):
“And” between values parts separate entries of the source, which are not always exact repeats. Equal entries are not always repeated.

Experiments:
[1] = Struck et al., J. Med. Chem., 9, 414-417 (1966); cited from earlier work
[2] = maximally tolerated dose, mice, ip qD x 10 (Table B); format: in vivo, mouse (B6D2F1); details: B6D2F1 mice, ip qD x 10 regimen
Experimental: (§1) In this system, groups of eight B6D2F1 mice are inoculated ip with 0.5 ml of a 10% (w:v) brei of B15 melanoma prepared from pooled sc tumors excised at 14-21 days from […] donor mice. Daily treatment is begun 24 hours after tumor implantation and is continued daily for ten (10) days. The route of drug administration is ip. The mice are monitored daily for survival for sixty (60) days. Antitumor activity is assessed by prolongation of median survival time. An ILS of ≥25% indicates activity in this tumor model.
^(b) maximally tolerated dose for B6D2F1 mice on an ip qD .times

[3] = system: M5076 reticulum cell sarcoma; test: ip M5076 reticulum cell sarcoma tumor model; format: in vivo, mouse (B6D2F); details: mice bearing ip M5076 reticulum cell sarcoma; ip daily for 10 days
Experimental: (§2) Another chemosensitive tumor model is intraperitoneally (ip) implanted M5076 reticulum cell sarocma in mice. In this system B6D2F female mice are inoculated with 0.5 ml of a 10 percent (w:v) brei of M5076 prepared from pooled subcutaneous (sc) tumors excised at about 21 days from C57B1/6 donors. Drugs are administered ip. Daily treatment is begun 24 hours after implantation and is continued for ten days. The treatment regimen for M5076 is more prolonged than for P388 because of the slower growth rate and longer control survival time of the M5076 tumor. A drug is considered active in this tumor model if it produces ≥25% ILS.

[4] = system: P388 leukemia; test: in vivo ip P388 lymphocytic leukemia mouse model; design: species or system mouse (B6D2F1); details: mice bearing ip P388 leukemia; ip Days 1-5; figures separated by slashes are from separate experiments
Text: P388 lymphocytic leukemia is currently the most widely used animal tumor model for screening for antitumor agents and for detailed evaluation of active compounds. This tumor system is widely accepted as an antitumor agent screening tool because it is sensitive to virtually all of the clinically active antineoplastic agents; quantitative and reproducible; amenable for large-scale screening; and predictive for activity in other animal tumor models.
10^6 P388 leukemia cells are inoculated ip in B6D2F1 mice. Twenty-four hours later, if the tumor inoculum proves to be free of bacterial contamination (as determined by 24 hours incubation in thioglycollate broth), animals are randomized into groups of 6 and housed in shoebox cages. The compound to be evaluated is dissolved in a minimal volume of N,N-dimethylacetamide (DMA). An equal volume of saline is added; if the drug comes out of solution an equal volume of polyethoxylated castor oil is added and then saline qs to a concentration such that the desired dose is delivered in 0.5 ml. The final concentration of DMA and polyethoxylated castor oil is 10 percent. Dilutions for lower doses are made with saline so there is a decreasing proportion of organic solvents in the vehicle with decreasing dosage. This vehicle provides a soluble formulation. […] Animals are monitored daily for mortality and experiments are terminated after 45 days. […]

[5] = system: B16 melanoma; test: in vivo ip B16 melanoma assay; design: species or system mouse (B6D2F1); details: mice bearing ip B16 melanoma; ip daily for 10 days
Experimental: as §1

[6] = maximally tolerated dose, mice, ip qD x 10 (Table C); format: in vivo, mouse (B6D2F female); details: B6D2F female mice, ip qD x 10 regimen
Experimental: as §2
^(b) maximally tolerated dose for B6D2F female mice on ip qD ×

| SMILES | cytotoxic activity [1] | MTD (maximally tolerated dose) [2] | ILS (MAX): maximum increase in lifespan [3] | ILS (max): maximum increase in lifespan [4] | ILS: maximum increase in lifespan [5] | MTD (maximally tolerated dose) [6] |
| --- | --- | --- | --- | --- | --- | --- |
| c1ccc(P(CCP(c2ccccc2)c2ccccc2)c2ccccc2)cc1 [1,2-bis(diphenylphosphino)ethane] | cytotoxic activity | – | – | – | – | – |
| [Cl][Au].c1ccc(P(CCP(CCP(c2ccccc2)c2ccccc2)c2ccccc2)CCP(c2ccccc2)c2ccccc2)cc1 (stereo not drawn) [Compound 1, Chloro[1,1,4,7,10,10-hexaphenyl-1,4,7,10-tetraphosphodecane-P^1, P^4, P^7, P^10]gold(I)] | – | 2 mg/kg | 38% | 40% and 65% | 37% | 2 mg/kg |
